row,Compound,melting point [°C]
1,c1csc(-c2noc(COc3ccc(CCCn4ccnc4)cc3)n2)c1,118 to 119
2,N#CCCSc1nnsc1-c1ccccc1,63.5 to 64.5
3,O=c1[nH]c(CO)nc2cc3c(cc12)CCC3,205 to 210
4,O=[N+]([O-])c1c(NCC23CCCN2CCC3)cnc2ccccc12,95 to 99
5,CC(=O)N(C(C)=O)c1nsc2ccccc12,65 to 67
6,Cc1ccc(-n2nc(O)c3[nH]c4cc(Cl)ccc4c(=O)c3c2=O)cc1,368 to 370
7,COc1cc(C(C)=O)ccc1OCCCCCCl,57 to 58
8,CN(C)CC(=O)OCc1ccc2c(c1)-c1n[nH]c(=O)c3cccc(c13)O2,227 to 230
9,CCN(CC)C(=O)c1cccc(I)c1C(=O)O,120 to 122
10,Cn1ccc2c3c(c(C(=O)OCc4ccccc4)cc21)C(=O)NC3=O,186 to 189
11,COc1ccc2c(c1)c1c(n2C)C2(C)CCC(=O)N2CC1 (stereo not drawn),164 to 167
12,COc1ccc(-c2cc(C(=O)O)c(=O)n(Cc3ccc(F)cc3)n2)cc1F,222 to 224
13,Cc1c(O)c(=O)ccn1CCCCO,126 to 128
14,CC(C)(C)ONC(=O)Oc1ccccc1,124 to 126
15,COc1ccc(C=C2SC(=O)N(CCc3ccccn3)C2=O)cc1-c1cc2c(cc1C)C(C)(C)CCC2(C)C,170 to 171
16,COC(=O)/C(C)=C/COc1cccc(O)c1,79 to 81
17,CCNC(=O)Nc1ccc(-c2sc3c(c2CN(C)C(C)C)c(=O)n(-c2ccccc2)c(=O)n3Cc2c(F)cccc2F)cc1,208 to 210
18,N#CCCCc1ncc(Br)cc1[N+](=O)[O-],73 to 76
19,O=C(COc1ccc(Cl)cc1)c1ccccc1,81 to 86
20,CCCCCCNC(=O)NOCC(O)CN1CCCCC1 (stereo not drawn),50 to 52
21,CC(C)O[Si](C)(C)C[C@](O)(c1ccc(F)cc1F)[C@@H](C)n1ncn(-c2ccc(OCC(F)(F)C(F)F)cc2)c1=O,125 to 126

row,Compound,melting point [°C]
1,CC(C)(C)OC(=O)N[C@H]1COc2ccccc2N(CC(=O)OCc2ccccc2)C1=O,122 to 124
2,CC1(C)C=C(N2CCCS2(=O)=O)c2cc(S(C)(=O)=O)ccc2O1,226 to 227
3,O=C(C=P(c1ccccc1)(c1ccccc1)c1ccccc1)CCCOc1ccccc1,83 to 89
4,Cc1nn(C)c2ncc3c(c12)CC(C)CC3 (stereo not drawn),121 to 123
5,N#CC(C(=O)NC1CCCCC1)=C1Nc2ccccc2O1,185 to 187
6,COc1cc([C@@H](O)[C@@H](C)N2CCC(O)(c3ccccc3)CC2)ccc1OCc1ccccc1 (relative stereo),131 to 132
7,CCOc1cc2ncc(Nc3cccc(F)c3)nc2cc1OCC,193
8,CCOC(=O)C1=C(C)N=C(N)C(CC)(C(=O)OCC)C1c1cccc([N+](=O)[O-])c1 (stereo not drawn),122 to 123
9,Cc1nc(C)c(-c2ccnc(Nc3ccc(C)c(S(=O)(=O)N4CCOCC4)c3)n2)s1,81 to 83
10,COC(=O)c1ccc(N2CCCC2=O)cc1,118 to 120
11,CNCc1nnc2n1-c1ccc(Cl)cc1C(c1ccccc1F)=CC2,170 to 171
12,CC(C)(C)NCC(O)COc1ccc(C(N)=O)cc1I (stereo not drawn),111 to 114
13,COC(=O)c1ccc(C(C(N)=O)C(C)c2cc(Cl)ccc2N2CCCC2)cc1 (stereo not drawn),133 to 135
14,CC(C)C[C@H](NC(=O)OCc1ccccc1)C(=O)N[C@@H](Cc1ccccc1)C(=O)CSc1ccccc1,105 to 106
15,O=C(O)CNC(=O)c1cc(Br)nc(Br)c1,151 to 152
16,COc1cc(I)c(CC(C)N2CCCC2)cc1OC (stereo not drawn),87 to 88
17,O=Cc1ccc2oc(-c3ccc4ccc(Cl)cc4n3)cc2c1,235 to 236
18,CCC(=O)NCc1cccc2c1C(=O)N(C1CCC(=O)NC1=O)C2=O (stereo not drawn),219 to 221
19,C=C(C)c1cc(NC(=O)N2CCN(c3cc(OC)cc(OC)c3)CC2)c(OC)nc1C,83 to 85
20,CCOC1=NC(N)=C(C(=O)OC)C(c2cccc([N+](=O)[O-])c2)C1C(=O)OC (stereo not drawn),163
21,COc1cc(OC)nc(C(CC2CC2)C(=O)NS(C)(=O)=O)n1 (stereo not drawn),92 to 94

row,Compound,melting point [°C]
1,Nc1cc(Cl)ccc1-c1noc(=O)[nH]1,159 to 161
2,O=C(O)COc1ccc(C(=O)c2ccc(Cl)cc2)c(Cl)c1Cl,196 to 198
3,COC(=O)NNC(=O)Nc1ccccc1,154 to 155
4,CN(C)C1CCc2[nH]c3c(C#N)cccc3c2C1 (stereo not drawn),177 to 179
5,O=C(CCl)c1ncccn1,73 to 80
6,CN1CCN(c2nc3c(c(NCCO)n2)SCCC3)CC1,162 to 164
7,O=c1c2[nH]cnc2n(CC2CC2)c(=O)n1CC1CC1,203
8,COc1cccc2oc(-c3ccc(C(F)(F)F)cc3)cc(=O)c12,190 to 191
9,Fc1ccc(N2CCC(NCc3ccn4c(CC5CC5)nnc4c3C(F)(F)F)CC2)c(F)c1,118
10,CCOC(=O)C1=C(COCCNc2nccc(=O)[nH]2)NC(C)=C(C(=O)OC)C1c1ccccc1Cl (stereo not drawn),148 to 150
11,Cc1[nH]c(=O)c(C#N)cc1-c1ccccc1OCC(=O)O,297 to 299
12,COc1ccc(N2CCN(Cc3cc4ccccc4[nH]c3=O)CC2)cc1,263 to 266
13,CCn1ncc2c3noc(-c4ccc(C)cc4)c3cnc21,221 to 222
14,Cc1c(C(=O)c2cnn(C(C)(C)C)c2O)ccc(S(C)(=O)=O)c1I,171 to 172
15,CN1Cc2ccccc2C(O)(Cc2ccc(Cl)cc2F)C1 (stereo not drawn),113 to 116
16,CC(C)(C)OC(=O)N1CC2CCCCC(C1)C2C=O (stereo not drawn),55 to 60
17,COc1c(Cl)ccc(-c2cc(N)c(Cl)c(C(=O)OCc3ccccc3)n2)c1Cl,107 to 108
18,NC(=O)c1ncn(C2OC(COC(=O)c3ccccc3)C(O)C2O)n1 (stereo not drawn),182 to 184
19,CCCCCCCCCOc1ccccc1/C=C/C(C)=C/C=C/C(C)=C\C(=O)O,135 to 136

# Results, then the compound that gave them:
row,melting point [°C],Compound
1,275 to 276,CC1Oc2ccc(C3=NNC(=O)CC3)cc2NC1=O (stereo not drawn)
2,189 to 190,COc1cc(OC)c(-c2cc3ccccc3[nH]2)cc1C=CC(=O)c1ccc(S(=O)(=O)NCC(=O)O)cc1
3,113 to 115,c1ccc2c(c1)SCCCN2N=C1CCNCC1
4,60,Cc1ccc(I)cc1O
5,159 to 161,COc1ccc(C2CC(=O)N(c3ccnc(NC(=O)NCc4ccccn4)c3)C2)cc1 (stereo not drawn)
6,258 to 260,CCn1nc2oc(C=CC(N)=O)c(C)c2c1C
7,212 to 216,CCCc1c(C(C)=NO)c2ccc(C(N)=O)cc2n1Cc1ccccc1Cl
8,98 to 100,CCOC(=O)CC(O)CC(O)C=Cc1c(C(C)C)oc(-c2ccccc2)c1-c1ccc(F)cc1 (stereo not drawn)
9,121,CC(C)=NOCOc1cc(-n2c(=O)cc(C(F)(F)F)n(C)c2=O)c(F)cc1Br
10,60 to 62,O=C(CCCCCOc1ccc([N+](=O)[O-])cc1)OCCOCCOC(=O)CCCCCOc1ccc([N+](=O)[O-])cc1
11,237,COc1ccccc1-n1c(CSc2ncnc3[nH]cnc23)nc2cccc(Cl)c2c1=O
12,154 to 156,Cc1nn(C)c2c1N(C(=O)CN(C(C)C)C(C)C)c1ccccc1NC2=O
13,213 to 215,Cn1c(COc2ccc(CC3SC(=O)NC3=O)cc2)nc2ccc(Oc3ccc(NC(=O)c4cccnc4)cc3)cc21 (stereo not drawn)
14,125 to 126,CC(CSc1cc(C(C)(C)C)c(O)c(C(C)(C)C)c1)C(=O)N1CCCC1 (stereo not drawn)
15,97 to 100,O=C(COC(=O)Cc1ccccc1Nc1cc2c(cc1Cl)CCC2)OCc1ccccc1
16,117 to 118,Fc1ccc2c(c1)Cc1cc(F)ccc1O2
17,112,CCOC(=O)CC(=O)c1cc(Oc2ccccc2)c(NS(C)(=O)=O)cc1O
18,219 to 220,COc1cc(OCC(CO)CO)c(C=CC(=O)c2ccc(C(=O)O)cc2)cc1-c1cccs1
19,46.1 to 47.5,O=[N+]([O-])c1ccc(F)c(I)c1F
20,88 to 90,COc1ccc(OCc2ccccc2)cc1CBr
21,139 to 140,CC(=O)N1CCN=C1Nc1cc(C(C)C)nn1C(C)C

row,melting point [°C],Compound
1,130 to 136,CCC[C@@H](CC1(C(=O)Nc2nnc(CC)s2)CCCC1)C(=O)O
2,165 to 170,CCCCc1nc(C(C)(C)O)c(C(=O)O)n1Cc1ccc(-c2ccccc2C(=O)C(=O)O)cc1
3,92.9,CC(C)(C)C1=NN(c2ccc(S(=O)(=O)O)cc2)C(c2ccc(F)cc2)C1 (stereo not drawn)
4,182 to 186,Cc1c(F)c(OC(F)F)cc2c1c(C#N)c(-c1ccc(S(=O)(=O)N[C@@H](C)C(F)(F)F)cn1)n2C1CCC1
5,96 to 97,COC(=O)/C=C(/OC)c1cccc2ccc(Br)cc12
6,170,O=C(c1ccccc1)n1c(=O)[nH]cc(F)c1=O
7,278,Cc1c2ccccc2c(C)c2cc3c(cc12)C(=O)OC3=O
8,> 300,Nc1nc2ccccc2c2c1nc(CN1CCOCC1)n2Cc1ccccc1
9,112 to 114,COc1cc(C#N)ccc1C=O
10,109 to 112,N#Cc1ncc(Br)cc1Br
11,220 to 221,COc1ccc(C(=O)O)c2cccc(S(=O)(=O)N(C)C)c12
12,90 to 91,CCOC(=O)c1nn(C)c(OC(F)F)c1CO
13,144 to 146,CC(=O)NC[C@H]1CN(c2ccc(C3CCN(C(=O)OC(C)(C)C)CC3)c(F)c2)C(=O)O1
14,101 to 102,CC(=O)Oc1cnc2c(OC(C)=O)cccc2c1
15,122 to 124,CN(NC(=O)c1ccccc1C(=O)O)c1nc(-c2ccccc2)cs1
16,160 to 163,O=C(NCc1ccc(Cl)cc1)c1cn(CCCN2CCCCC2)c2ccc(C#CCO)cc2c1=O
17,106,CC(C)(C)OC(=O)N1CCN(C(=O)c2ccccc2)CC1
18,102 to 105,COC(=O)C1Cc2c([nH]c3ccccc23)C(c2cc(OC)ccc2OC)N1 (stereo not drawn)
19,231 to 233,CCC(NC(=O)OC)c1ccc(Cl)c2nc3n(c12)CCCN3c1c(Cl)cc(Cl)cc1Cl (stereo not drawn)
20,115,COc1cccc(NC(=O)C(F)(F)F)c1
21,216 to 217,O=C1CCCCN1Cc1ccc(CCn2cnc3cc(-c4ccc(F)cc4)sc3c2=O)cc1

# Source: a melting point compilation (Tetko et al.; mined from patent text by program, amines drawn as free bases though some values may be those of a salt)
